Measured values taken from patent US20220265591A1, “USE OF AN OSMOLYTE IN MANUFACTURE OF A MEDICAMENT FOR TREATMENT OF OCULAR DISORDERS” (SINGAPORE HEALTH SERVICES PTELTD, priority 2019, published 2022).
Entries after “also recorded” stand apart in the source; their conditions may differ. Like-named read-outs stand apart in the source and are kept apart here.

Columns and labels:
[1] = biological target: T1, TGFBIp611-633 G623R peptide (Homo sapiens, UniProt Q15582, G623R); experiment: Circular Dichroism assay (θ[218]), inhibition of amyloid fibrillation; type: biochemical
T1 construct: The 23-amino acid long peptide (TGFBIp 611-633 c.623 G>R) from the 4th FAS1 domain; purchased Synpeptide Co Ltd, Shanghai, China; host or cells: synthetic peptide
Experimental: The peptide samples were collected 0.1 cm path length quartz cuvettes and examined in a Chirascan™-plus Spectropolarimeter (Applied Photophysics Limited, UK). Spectra were recorded from 260 nm to 190 nm in 0.1 nm steps at a scan rate of 50 nm/min. The final spectrum was the average of three scans as per the manufacturer's recommendation. The Mean Residual Weight (MRW) ellipticity ([θ]mrw values) at wavelength λ was calculated using the following equation (i): […]
whereby θλ is the observed ellipticity at a particular wavelength (degrees), I is the path length (cm), and c is the concentration (g/ml). Secondary structures of the protein were analyzed using CDNN software.
The θ[218] values that determine the β-sheet secondary structure were used to calculate the percentage inhibition in cross β-sheet in the untreated and osmolyte-treated peptide samples at various time points. Percentage inhibition for each osmolyte treatment per time point was calculated by normalizing the [θ]218 values of osmolyte treatment with the [θ]218 values of the untreated samples and expressed as a percentage.
Circular Dichroism (CD) spectroscopy was performed to study the changes in the secondary structure of the peptides. The TGFBIp^611-633 G623R peptides were treated with 200 mM and 320 mM of taurine in PBS buffer at pH 7.0 for 24 h, 48 h and 72 h, respectively. While the TGFBIp^611-633 N622K peptides were treated with 200 mM and 320 mM of taurine in PBS buffer at pH 7.0 for 72 h, 96 h, 120 h, 144 h, 192 h, 216 h, and 240 h, respectively. The treatment solutions were studied by far UV-CD assay.

[2] = biological target: T1, TGFBIp611-633 G623R peptide; experiment: ThT fluorescence assay, inhibition of amyloid fibrillation; type: biochemical; conditions: for inhibition at 200000 µM: 200 mM
Experimental: The 23-amino acid long peptide (TGFBIp 611-633 c.623 G>R) from the 4th FAS1 domain of TGFBIp with the substitution, G623→R ([…]) that rapidly formed amyloid fibrils was used in this study. The peptide was dissolved (0.6 mg/ml) in PBS and allowed to form amyloid fibrils in 50 ml Falcon tubes in a shaking incubator at 37° C. and 180 rpm with and without the addition of osmolytes. […] The TGFBIp^611-633 G623R peptide incubated with PBS was used as a control.
The peptide samples collected at various time points above were treated with 30 μM Thioflavin T (ThT) (Sigma-Aldrich Inc., MO, USA) in PBS buffer at pH 5.5 in a 96-well microplate (Greiner Bio-One, Frickenhausen, Germany) for ThT fluorescence assay. The microplate was excited at 445 nm and the resulting emission fluorescence at 485 nm was measured using a microplate reader (Tecan Infinite M200 Pro, CA, USA).
Percentage inhibition for each osmolyte treatment was calculated by subtracting the baseline fluorescent intensity without the peptides and compounds from the observed fluorescent intensity of each treatment well. The fluorescent intensities per osmolyte treatment were normalized against the untreated fluorescent intensity per time point and expressed as a percentage.
The TGFBIp^611-633 G623R peptides were treated with 200 mM and 320 mM of taurine for up to 72 hours, respectively, the results of which are illustrated in FIG. 11. The TGFBIp^611-633 N622K peptides were treated with 200 mM and 320 mM of taurine for up to 240 hours, respectively, the results of which are illustrated in FIG. 12. The peptides incubated with PBS were used as controls.
The peptide samples were collected at 24 h, 48 h and 72 h after treatment for TGFBIp^611-633 G623R peptides and at 120 h, 144 h and […] after treatment for the TGFBIp^611-633 N622K peptides. The samples were then treated with 30 μM ThT in PBS buffer at pH 5.5 in a 96-well microplate for ThT fluorescence assay. The microplate was excited at 445 nm and the resulting emission fluorescence at 485 nm was measured using a microplate reader.

[3] = biological target: T2, preformed amyloid fibrils from TGFBIp611-633 G623R peptide (Homo sapiens, UniProt Q15582, G623R); experiment: Circular Dichroism assay (θ[218]), disaggregation of preformed amyloid fibrils; type: biochemical; conditions: for inhibition at 200000 µM / disruption of the β-sheet structure compared among the four osmolytes, CD: preformed fibrils; for inhibition at 200000 µM: read-out: % Inhibition (mean ± SD) n = 3, θ[218] of preformed amyloid fibrils, circular dichroism; for % Dissolution at final time point, CD: TGFBIp-G623R preformed fibrils, listed as taurine
T2 construct: The 23-amino acid long peptide (TGFBIp 611-633 c.623 G>R) from the 4th FAS1 domain; purchased Synpeptide Co Ltd, Shanghai, China; host or cells: synthetic peptide
Experimental: Circular Dichroism (CD) spectroscopy was performed to study the disaggregation of the preformed amyloid fibrils. […] The treatment solutions were studied by far UV-CD assay.
Circular Dichroism (CD) spectroscopy was performed to study the disaggregation of the preformed amyloid fibrils. The preformed amyloid fibrils were treated with taurine at a concentration of 200 mM and 320 mM in PBS buffer at pH 7.0 for 24 h, 48 h and 72 respectively. The treatment solutions were studied by far UV-CD assay.

[4] = biological target: T3, TGFBIp 611-633 c.623 G>R fibrils (Homo sapiens, UniProt Q15582, G623R); experiment: Transmission Electron Microscopy of preformed fibrils; conditions: 72 hours treatment
T3 construct: The 23-amino acid long peptide (TGFBIp 611-633 c.623 G>R) from the 4th FAS1 domain; purchased Synpeptide Co Ltd, Shanghai, China; host or cells: synthetic peptide
Experimental: The disaggregation of preformed amyloid fibrils was also verified by TEM analysis as illustrated in FIG. 8B. Morphological analysis of the TGFBIp 611-633 c.623 G>R fibrils before and after treatment with osmolytes for 72 hours was investigated by Transmission electron microscopy (TEM) with a JEOL JEM-1010 transmission electron microscope using Digital Micrograph™ 1.81.78 for GMS 1.8.0 (Gatan, Pleasanton, Calif.) at the Singhealth-core Electron Microscopy facility. 10 μl of amyloid fibril samples with and without osmolyte treatment were applied onto Formvar-carbon coated 300-mesh-size nickel grids. The samples were stained with Uranyl acetate solution, washed, dried, and observed at magnifications 8000-50000× at 80 kV.

[5] = 200 mM, 24 h, read-out: % Inhibition (mean ± SD) n = 3, θ[218] circular dichroism
[6] = 200 mM, 48 h, read-out: % Inhibition (mean ± SD) n = 3, θ[218] circular dichroism
[7] = 200 mM, 72 h, read-out: % Inhibition (mean ± SD) n = 3, θ[218] circular dichroism
[8] = 24 h, read-out: % Inhibition (mean ± SD) n = 3, ThT fluorescence
[9] = 48 h, read-out: % Inhibition (mean ± SD) n = 3, ThT fluorescence
[10] = 72 h, read-out: % Inhibition (mean ± SD) n = 3, ThT fluorescence
[11] = TGFBIp-G623R, 320 mM, final time point

T3 sequence (Q15582 611-633 G623R limits assumed): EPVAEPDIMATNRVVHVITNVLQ

C[N+](C)(C)CC(=O)O [Betaine, betaine]
inhibition at 200000 µM [1, 5]: 8% | inhibition at 200000 µM [1, 6]: 19% | inhibition at 200000 µM [1, 7]: 34% | inhibition at 200000 µM [2, 8]: 16 ± 3% | inhibition at 200000 µM [2, 9]: 26 ± 3% | inhibition at 200000 µM [2, 10]: 44% | inhibition at 200000 µM ([3]; 200 mM, 24 h): 6 ± 1% | inhibition at 200000 µM ([3]; 200 mM, 48 h): 24 ± 11% | inhibition at 200000 µM ([3]; 200 mM, 72 h): 36% | TEM morphology of fibrils [4]: reduction in density of ordered amyloid fibrils was evident

OC[C@H]1O[C@H](OC[C@H]2O[C@H](O[C@]3(CO)O[C@H](CO)[C@@H](O)[C@@H]3O)[C@H](O)[C@@H](O)[C@@H]2O)[C@H](O)[C@@H](O)[C@H]1O [Raffinose, raffinose]
inhibitory effect on fibrillation compared among the four osmolytes, CD ([1]; 200 mM): maximum inhibition; also recorded: maximum inhibitory effect | inhibition at 200000 µM [1, 5]: 19% | inhibition at 200000 µM [1, 6]: 23% | inhibition at 200000 µM [1, 7]: 57% | inhibition at 200000 µM [2, 8]: 21 ± 6% | inhibition at 200000 µM [2, 9]: 32 ± 2% | inhibition at 200000 µM [2, 10]: 65% | inhibition at 200000 µM ([3]; 200 mM, 24 h): 7 ± 7% | inhibition at 200000 µM ([3]; 200 mM, 48 h): 48 ± 9% | inhibition at 200000 µM ([3]; 200 mM, 72 h): ~58% | disruption of the β-sheet structure compared among the four osmolytes, CD ([3]; 200 mM): highest disruption of the β-sheet structure | TEM morphology of fibrils [4]: reduction in density of ordered amyloid fibrils was evident

CNCC(=O)O [Sarcosine, sarcosine]
inhibitory effect on fibrillation compared among the four osmolytes, CD ([1]; 200 mM): maximum inhibition | inhibition at 200000 µM [1, 5]: ~17% | inhibition at 200000 µM [1, 6]: ~43% | inhibition at 200000 µM [1, 7]: ~57% | inhibition at 200000 µM [2, 8]: 20 ± 3% | inhibition at 200000 µM [2, 9]: 32 ± 2% | inhibition at 200000 µM [2, 10]: 56% | inhibition at 200000 µM ([3]; 200 mM, 24 h): 12 ± 8% | inhibition at 200000 µM ([3]; 200 mM, 48 h): 39 ± 6% | inhibition at 200000 µM ([3]; 200 mM, 72 h): 41% | TEM morphology of fibrils [4]: reduction in density of ordered amyloid fibrils was evident

NCCS(=O)(=O)O [Taurine, taurine]
inhibition at 200000 µM [1, 5]: ~25% | inhibition at 200000 µM [1, 6]: ~54% | inhibition at 200000 µM [1, 7]: ~56% | % Inhibition at final time point, CD ([1]; TGFBIp-G623R, 200 mM, final time point): 42% | inhibition at 200000 µM ([1]; TGFBIp-G623R, 200 mM, final time point, read-out: % Inhibition at final time point, CD): 41% | % Inhibition at final time point, CD [1, 11]: 63% | inhibition at 320000 µM ([1]; TGFBIp-G623R, 320 mM, final time point, read-out: % Inhibition at final time point, CD): 61% | inhibition at 200000 µM [2, 8]: 20 ± 6% | inhibition at 200000 µM [2, 9]: 34 ± 5% | inhibition at 200000 µM [2, 10]: 48% | inhibition at 200000 µM ([2]; TGFBIp-G623R, final time point, read-out: % Inhibition at final time point, ThT): 41% | % Inhibition at final time point, ThT [2, 11]: 60% | inhibition at 320000 µM [2, 11]: 61% | inhibition at 200000 µM ([3]; 200 mM, 24 h): 13 ± 6% | inhibition at 200000 µM ([3]; 200 mM, 48 h): 40 ± 12% | inhibition at 200000 µM ([3]; 200 mM, 72 h): ~54% | disruption of the β-sheet structure compared among the four osmolytes, CD ([3]; 200 mM): highest disruption of the β-sheet structure | % Dissolution at final time point, CD ([3]; 200 mM): 49% | % Dissolution at final time point, CD ([3]; 320 mM): 69% | TEM morphology of fibrils [4]: reduction in density of ordered amyloid fibrils was evident
